From patent publication US6951881B2, “(1-substituted-indol-3-yl) alkylidenehydrazinecarboximidamide derivatives as 5-hydroxytryptamine-6 ligands” (Wyeth, priority 2002, dated 2005) come the findings set out here.

For one assay, the target named is T1, human cloned 5-HT6 receptors (Homo sapiens, UniProt P50406).
T1 construct: expressed in transfected cells; host or cells: HeLa cells
T1 sequence (P50406 whole entry): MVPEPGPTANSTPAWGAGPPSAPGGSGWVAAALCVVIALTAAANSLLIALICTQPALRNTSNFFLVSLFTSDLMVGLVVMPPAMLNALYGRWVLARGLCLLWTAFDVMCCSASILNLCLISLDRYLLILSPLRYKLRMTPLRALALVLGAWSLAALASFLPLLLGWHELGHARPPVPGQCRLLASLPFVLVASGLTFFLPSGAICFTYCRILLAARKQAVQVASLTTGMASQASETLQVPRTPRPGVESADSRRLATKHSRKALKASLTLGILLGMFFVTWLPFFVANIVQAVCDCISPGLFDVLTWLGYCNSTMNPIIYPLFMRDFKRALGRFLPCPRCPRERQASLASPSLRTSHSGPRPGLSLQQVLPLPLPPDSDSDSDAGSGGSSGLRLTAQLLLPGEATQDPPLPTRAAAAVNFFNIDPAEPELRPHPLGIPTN
It counts as binding.
Details: not given
Here is the method:
This operation is repeated.
The reaction is allowed to proceed in the dark for 120 min at room temperature, at which time, the bound ligand-receptor complex is filtered off on a 96 well unifilter with a Packard Filtermate® 196 Harvester. The bound complex caught on the filter disk is allowed to air dry and the radioactivity is measured in a Packard TopCount® equipped with six photomultiplier detectors, after the addition of 40.0 μl Microscint®-20 scintillant to each shallow well. The unifilter plate is heat-sealed and counted in a PackardTopCount® with a tritium efficiency of 31.0%.
Specific binding to the 5-HT6 receptor is defined as the total radioactivity bound less the amount bound in the presence of 10.0 μM unlabeled methiothepin. Binding in the presence of varying concentrations of test compound is expressed as a percentage of specific binding in the absence of test compound. The results are plotted as logit % bound versus log concentration of test compound. Nonlinear regression analysis of data points with a computer assisted program Prism® yields both the IC50 and the Ki values of test compounds with 95% confidence limits.
The amount of displacement by the test compound is given in percent (%) inhibition and is derived from the following equation: [formula] where B0 is the amount of CPM bound in the presence of the testing agent. NSB represents the CPM bound in the presence of a saturating concentration of a displacer and TB represents the total amount of CPM bound at zero (0) concentration of test compound.
Alternatively, a linear regression line of decline of data points is plotted, from which the IC50 value can be read off and the Ki value determined by solving the following equation: [formula] where L is the concentration of the radioactive ligand used and KD is the dissociation constant of the ligand for the receptor, both expressed in nM.
Molecule `C/C(=N\NC(=N)N)c1c(-c2ccc(Cl)cc2Cl)n(C)c2ccc(Cl)cc12` [Example 128, 2-{[5-Chloro-2-(2,4-dichlorophenyl)-1-methyl-1H-indol-3-yl]ethylidene}hydrazinecarboximidamide] had an inhibition at 0.1 µM of 57.3%.

The same assay, now with this note: [3H]-LSD 3.0 nM, Hela cell membranes; read-out: 5-HT6 Binding Ki.
For `CN(N=Cc1c(-c2ccc(Cl)cc2)[nH]c2ccccc12)C1=NCCN1` [Example 46, N′-[2-(4-chlorophenyl)-1H-indol-3-ylmethylene]-N-(4,5-dihydro-1H-imidazol-2-yl)-N-methylhydrazine], the Ki stood at 10 nM.

The same assay, now with this note: test compound dose 10 nM; displacement of [3H]-LSD.
Take `N=C(N)NN=C1CCCc2[nH]c3ccccc3c21` [Example 161, 2-(1,2,3,9-tetrahydro-4H-carbazol-4-ylidene)hydrazinecarboximidamide]: testing at 0.01 µM gave an inhibition of 39.5%.

Consider `CC(=NNC(=N)N)c1c(-c2ccc(F)cc2)[nH]c2ccccc12` [Example 74, 2-{1-[2-(4-fluoro-phenyl)-1H-indol-3-yl]-ethylidene}hydrazinecarboximidamide], for which the inhibition at 0.01 µM came out at 38.3%.

Still in this assay, the particulars now being: test compound dose 100 nM; displacement of [3H]-LSD.
Regarding `CC(=NNC(=N)N)c1c(-c2ccc(-c3ccccc3)cc2)n(C)c2ccc(Cl)cc12` [Example 143, 2-[(2-biphenyl-5-chloro-1-methyl-1H-indol-3-yl)-ethylidene]hydrazinecarboximidamide], the “% Inhibition” value was found to be 34.6%.

The same assay, now with this note: test compound dose 100 nM; displacement of [3H]-LSD; read-out: % Inhibition.
Consider `C/C(=N\NC(=N)N)c1c(-c2sccc2C)[nH]c2ccccc12` [Example 133, 2-{[2-(2-(3-methyl-thienyl))-1H-indol-3-yl]-ethylidene}hydrazinecarboximidamide], for which the inhibition at 0.1 µM amounted to 63.2%.

As to `C/C(=N\NC(=N)N)c1c(-c2sccc2C)n(C)c2ccccc12` [Example 146, 2-{[1-methyl-2-(2-(3-methyl-thienyl))-1H-indol-3-yl]-ethylidene}hydrazinecarboximidamide], the inhibition at 0.1 µM stood at 46.1%.

Consider `CC(C)c1ccc2[nH]c3c(c2c1)C(=NN(C)C1=NCCN1)CCC3` [Example 179, 6-isopropyl-1,2,3,9-tetrahydro-4H-carbazol-4-one 4,5-dihydro-1H-imidazol-2-yl(methyl)-hydrazone], for which the inhibition at 0.1 µM is 5.6%.

On to `CC(C)c1ccc2[nH]c3c(c2c1)C(=NN(C)C1=NCCN1)CC(C)(C)C3` [Example 177, 6-isopropyl-2,2-dimethyl-1,2,3,9-tetrahydro-4H-carbazol-4-one 4,5-dihydro-1H-imidazol-2-yl(methyl)hydrazone], for which the inhibition at 0.1 µM came to 22.9%.

Take `Cc1ccc2[nH]c3c(c2c1)C(=NNC(=N)N)CCC3` [Example 165, 2-(6-methyl-1,2,3,9-tetrahydro-4H-carbazol-4-ylidene)hydrazinecarboximidamide]: the inhibition at 0.1 µM worked out at 57.2%.

For the molecule `CCCCCNC(=N)NN=C1CCCc2[nH]c3ccc(Cl)cc3c21` [Example 181, 2-(6-chloro-1,2,3,9-tetrahydro-4H-carbazol-4-ylidene)-N-pentylhydrazinecarboximidamide], the inhibition at 0.1 µM turned out to be 47%.

For `N=C(N)NN=C1CC(c2ccccc2)Cc2[nH]c3ccc(Br)cc3c21` (stereo not drawn) [Example 170, 2-(6-bromo-2-phenyl-1,2,3,9-tetrahydro-4H-carbazol-4-ylidene)hydrazinecarboximidamide], the inhibition at 0.1 µM was 24.4%.

On to `CC1(C)CC(=NNC(=N)N)c2c([nH]c3ccc(OC(F)(F)F)cc23)C1` [Example 168, 2-[2,2-dimethyl-6-(trifluoromethoxy)-1,2,3,9-tetrahydro-4H-carbazol-4-ylidene]hydrazinecarboximidamide], for which the inhibition at 0.1 µM was 26%.

In the case of `N=C(NN=C1CCCc2[nH]c3ccc(Cl)cc3c21)NC1CCCC1` [Example 183, 2-(6-chloro-1,2,3,9-tetrahydro-4H-carbazol-4-ylidene)-N-cyclopentylhydrazinecarboximidamide], the inhibition at 0.1 µM amounted to 55.3%.

The same assay, now with this note: test compound dose 1000 nM; displacement of [3H]-LSD.
`CN(N=Cc1c(-c2ccccc2)[nH]c2ccccc12)C1=NCCN1` [Example 50, N-(4,5-dihydro-1H-imidazol-2-yl)-N′-(2-phenyl-1H-indol-3-ylmethylene)-N-methylhydrazine] yielded an inhibition at 1 µM of 96.2%.

With `CN(N=Cc1c(-c2ccc(Cl)cc2)n(CCc2ccccc2)c2ccccc12)C1=NCCN1` [Example 111, N-{[2-(4-chloro-phenyl)-1-(2-phenethyl)-1H-indol-3-yl]-methylene}-N′-(4,5-dihydro-1H-imidazol-2-yl)-N-methylhydrazine], the “% Inhibition” value is 37.5%.

On to `CNC(=N)NN=Cc1c(-c2ccc(Cl)cc2)[nH]c2ccccc12` [Example 121, 2-{[2-(4-chlorophenyl)-1H-indol-3-yl]methylidene}-N-methyl-1hydrazinecarboximidamide], for which the inhibition at 1 µM was 90.5%.

In the case of `CN=C(NC)NN=Cc1c(-c2ccc(Cl)cc2)[nH]c2ccccc12` [Example 122, 2-{[2-(4-chlorophenyl)-1H-indol-3-yl]methylidene}-N,N′-dimethyl-1hydrazinecarboximidamide], the inhibition at 1 µM was determined as 38.4%.

For `N=C(N)NN=C(C=Cc1ccccc1Cl)c1c(-c2ccc(Cl)cc2)[nH]c2ccccc12` [Example 63, 2-{3-(2-chloro-phenyl)-1-[2-(4-chloro-phenyl)-1H-indol-3-yl]-allylidene}hydrazinecarboximidamide], 1 µM produced 31.7% inhibition.

With `CC(=NNC(=N)N)c1c(-c2ccccc2)n(CCc2ccccc2)c2ccccc12` [Example 78, 2-{[1-(2-Phenethyl)-2-phenyl-1H-indol-3-yl]ethylidene}hydrazine-carboximidamide], the “% Inhibition” value is recorded as 84.2%.

The molecule `N=C(N)NN=C(c1c(-c2ccc(F)c(Cl)c2)[nH]c2ccccc12)C1CCCCC1` [Example 56, 2-{[2-(3-chloro-4-fluoro-phenyl)-1H-indol-3-yl]-cyclohexyl-methylene}hydrazinecarboximidamide] yielded an inhibition at 1 µM of 33.9%.

`N=C(N)NN=C(Cc1ccccc1)c1c(-c2ccc(Cl)cc2)[nH]c2ccccc12` [Example 60, 2-{1-[2-(4-chloro-phenyl)-1H-indol-3-yl]-2-phenyl-ethylidene}hydrazinecarboximidamide] had an inhibition at 1 µM of 49.5%.

Consider `CN(N=C(C=Cc1ccccc1)c1c(-c2ccc(Cl)cc2)[nH]c2ccccc12)C1=NCCN1` [Example 72, N′-{1-[2-(4-chloro-phenyl)-1H-indol-3-yl]-3-phenyl-allylidene}-N-(4,5-dihydro-1H-imidazol-2-yl)-N-methylhydrazine], for which the inhibition at 1 µM stood at 40.9%.

Turning to `CC(=NNC(=N)N)c1c(-c2ccc(F)c(Cl)c2)[nH]c2ccccc12` [Example 65, 2-{1-[2-(3-chloro-4-fluoro-phenyl)-1H-indol-3-yl]-ethylidene}hydrazinecarboximidamide], the inhibition at 1 µM is 87.2%.

`N#CCCn1c(-c2ccc(Cl)cc2)c(C=NNC(=N)N)c2ccccc21` [Example 108, 2-{[2-(4-chloro-phenyl)-1-(2-cyano-ethyl)-1H-indol-3-yl]-methylene}hydrazinecarboximidamide]: 1 µM produced 92% inhibition.

Turning to `CN(N=C(c1ccc(Cl)cc1)c1c(-c2ccc(Cl)cc2)[nH]c2ccccc12)C1=NCCN1` [Example 67, N′-{(4-chlorophenyl)-[2-(4-chlorophenyl)-1H-indol-3-yl]-methylene}-N-(4,5,-dihydro-1H-imidazol-2-yl)-N-methylhydrazine], the “% Inhibition” value is 35.2%.

Take `CN(N=Cc1c(-c2ccc(Cl)cc2)[nH]c2ccccc12)C1=NCCN1` [Example 46, N′-[2-(4-chlorophenyl)-1H-indol-3-ylmethylene]-N-(4,5-dihydro-1H-imidazol-2-yl)-N-methylhydrazine]: the inhibition at 1 µM stood at 96.5%.
